Measurements: PubChem BioAssay (NCI)
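Cells were grown in 96-well plates and exposed to each compound for 48 hours at five concentrations; endpoints were interpolated linearly between bracketing concentrations, or set to the highest concentration if not reached. Abbreviation: GI50, concentration required for 50% inhibition of growth. TGI denotes the concentration required for complete inhibition of growth.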

Experiments:
Assay in all cases: DTP human tumour cell line panel, 48 h
RXF 393 renal = tested on: RXF 393 renal
OVCAR-8 ovarian = tested on: OVCAR-8 ovarian
U251 CNS = tested on: U251 CNS
KM12 colon = tested on: KM12 colon
MDA-MB-231 breast = tested on: MDA-MB-231 breast
HCC-2998 colon = tested on: HCC-2998 colon
MOLT-4 leukemia = tested on: MOLT-4 leukemia
SF-539 CNS = tested on: SF-539 CNS
HL-60(TB) leukemia = tested on: HL-60(TB) leukemia
HS 578T breast = tested on: HS 578T breast
IGROV1 ovarian = tested on: IGROV1 ovarian
HCT-15 colon = tested on: HCT-15 colon
MDA-MB-435 = tested on: MDA-MB-435
NCI-H522 lung = tested on: NCI-H522 lung
SK-OV-3 ovarian = tested on: SK-OV-3 ovarian
OVCAR-3 ovarian = tested on: OVCAR-3 ovarian
TK-10 renal = tested on: TK-10 renal
BT-549 breast = tested on: BT-549 breast
HCT-116 colon = tested on: HCT-116 colon
MCF7 breast = tested on: MCF7 breast
UO-31 renal = tested on: UO-31 renal
COLO 205 colon = tested on: COLO 205 colon
NCI-H23 lung = tested on: NCI-H23 lung
M14 melanoma = tested on: M14 melanoma
SR leukemia = tested on: SR leukemia
NCI-H460 lung = tested on: NCI-H460 lung
HT29 colon = tested on: HT29 colon
NCI/ADR-RES ovarian = tested on: NCI/ADR-RES ovarian
CCRF-CEM leukemia = tested on: CCRF-CEM leukemia
RPMI-8226 leukemia = tested on: RPMI-8226 leukemia
LOX IMVI melanoma = tested on: LOX IMVI melanoma
A549 NSCLC = tested on: A549 NSCLC
CAKI-1 renal = tested on: CAKI-1 renal
SF-268 CNS = tested on: SF-268 CNS
OVCAR-5 ovarian = tested on: OVCAR-5 ovarian
DU-145 prostate = tested on: DU-145 prostate
OVCAR-4 ovarian = tested on: OVCAR-4 ovarian
SF-295 CNS = tested on: SF-295 CNS
T-47D breast = tested on: T-47D breast
SK-MEL-5 melanoma = tested on: SK-MEL-5 melanoma
SK-MEL-2 melanoma = tested on: SK-MEL-2 melanoma
UACC-62 melanoma = tested on: UACC-62 melanoma
EKVX NSCLC = tested on: EKVX NSCLC
HOP-92 NSCLC = tested on: HOP-92 NSCLC
ACHN renal = tested on: ACHN renal
MALME-3M melanoma = tested on: MALME-3M melanoma
SNB-19 CNS = tested on: SNB-19 CNS
NCI-H226 lung = tested on: NCI-H226 lung
SW-620 colon = tested on: SW-620 colon
786-0 renal = tested on: 786-0 renal
UACC-257 melanoma = tested on: UACC-257 melanoma
K-562 leukemia = tested on: K-562 leukemia
SNB-75 CNS = tested on: SNB-75 CNS
PC-3 prostate = tested on: PC-3 prostate
HOP-62 NSCLC = tested on: HOP-62 NSCLC
SK-MEL-28 melanoma = tested on: SK-MEL-28 melanoma

With CCOC(=O)/C=C/C(=O)[C@H](CC(C)C)NC(=O)[C@H](Cc1ccccc1)NC(=O)OCc1ccccc1 the GI50 (RXF 393 renal) was 2.03 µM, the TGI (RXF 393 renal) was 3.64 µM and the GI50 (OVCAR-8 ovarian) was 18.4 µM. For the same compound, the TGI (OVCAR-8 ovarian) was 60.4 µM, the GI50 (U251 CNS) was 13.2 µM and the TGI (U251 CNS) was 27.2 µM. The GI50 (KM12 colon) was 12.2 µM, the TGI (KM12 colon) was 27.8 µM and the GI50 (MDA-MB-231 breast) was 2.92 µM. The TGI (MDA-MB-231 breast) was 6.35 µM, the GI50 (HCC-2998 colon) was 15.6 µM and the TGI (HCC-2998 colon) was 30.1 µM. The GI50 (MOLT-4 leukemia) was 2.42 µM, the TGI (MOLT-4 leukemia) was 9.25 µM and the GI50 (SF-539 CNS) was 2.45 µM. For the same compound, the TGI (SF-539 CNS) was 6.04 µM, the GI50 (HL-60(TB) leukemia) was 2.26 µM and the TGI (HL-60(TB) leukemia) was 9.67 µM. For the same compound, the GI50 (HS 578T breast) was 10.9 µM, the TGI (HS 578T breast) was 67.9 µM and the GI50 (IGROV1 ovarian) was 2.32 µM. It also gave a TGI (IGROV1 ovarian) of 4.89 µM, a GI50 (HCT-15 colon) of 1.83 µM and a TGI (HCT-15 colon) of 3.78 µM. For the same compound, the GI50 (MDA-MB-435) was 6.58 µM, the TGI (MDA-MB-435) was 20.1 µM and the GI50 (NCI-H522 lung) was 2.1 µM. It also gave a TGI (NCI-H522 lung) of 4.37 µM, a GI50 (SK-OV-3 ovarian) of 18.6 µM and a TGI (SK-OV-3 ovarian) of 32.6 µM. The GI50 (OVCAR-3 ovarian) was 3.19 µM, the TGI (OVCAR-3 ovarian) was 10.4 µM and the GI50 (TK-10 renal) was 1.87 µM. The TGI (TK-10 renal) was 3.81 µM, the GI50 (BT-549 breast) was 14.4 µM and the TGI (BT-549 breast) was 27.6 µM. For the same compound, the GI50 (HCT-116 colon) was 2.87 µM, the TGI (HCT-116 colon) was 9.43 µM and the GI50 (MCF7 breast) was 1.73 µM. For the same compound, the TGI (MCF7 breast) was 4.8 µM, the GI50 (UO-31 renal) was 1.78 µM and the TGI (UO-31 renal) was 3.66 µM. The GI50 (COLO 205 colon) was 2.46 µM, the TGI (COLO 205 colon) was 5.83 µM and the GI50 (NCI-H23 lung) was 11.3 µM. For the same compound, the TGI (NCI-H23 lung) was 32.8 µM, the GI50 (M14 melanoma) was 3.54 µM and the TGI (M14 melanoma) was 13.2 µM. The GI50 (SR leukemia) was 2.39 µM, the TGI (SR leukemia) was 6.32 µM and the GI50 (NCI-H460 lung) was 16.2 µM. It also gave a TGI (NCI-H460 lung) of 38.2 µM, a GI50 (HT29 colon) of 5.44 µM and a TGI (HT29 colon) of 38.6 µM. It also gave a GI50 (NCI/ADR-RES ovarian) of 12.3 µM, a TGI (NCI/ADR-RES ovarian) of 93.1 µM and a GI50 (CCRF-CEM leukemia) of 2.58 µM. It also gave a TGI (CCRF-CEM leukemia) of 18.8 µM, a GI50 (RPMI-8226 leukemia) of 2.13 µM and a TGI (RPMI-8226 leukemia) of 5.97 µM. For the same compound, the GI50 (LOX IMVI melanoma) was 1.76 µM, the TGI (LOX IMVI melanoma) was 3.39 µM and the GI50 (A549 NSCLC) was 20.7 µM. It also gave a TGI (A549 NSCLC) of 39.6 µM, a GI50 (CAKI-1 renal) of 8.82 µM and a TGI (CAKI-1 renal) of 21.7 µM. The GI50 (SF-268 CNS) was 3.3 µM, the TGI (SF-268 CNS) was 13.3 µM and the GI50 (OVCAR-5 ovarian) was 14.3 µM. The TGI (OVCAR-5 ovarian) was 31.1 µM, the GI50 (DU-145 prostate) was 3.1 µM and the TGI (DU-145 prostate) was 11.5 µM. It also gave a GI50 (OVCAR-4 ovarian) of 12.9 µM, a TGI (OVCAR-4 ovarian) of 26.6 µM and a GI50 (SF-295 CNS) of 16.2 µM. It also gave a TGI (SF-295 CNS) of 29.8 µM, a GI50 (T-47D breast) of 2.1 µM and a TGI (T-47D breast) of 4.66 µM. The GI50 (SK-MEL-5 melanoma) was 16.4 µM, the TGI (SK-MEL-5 melanoma) was 31.1 µM and the GI50 (SK-MEL-2 melanoma) was 13.8 µM. For the same compound, the TGI (SK-MEL-2 melanoma) was 27.1 µM, the GI50 (UACC-62 melanoma) was 3.99 µM and the TGI (UACC-62 melanoma) was 16.5 µM. For the same compound, the GI50 (EKVX NSCLC) was 15.6 µM, the TGI (EKVX NSCLC) was 29 µM and the GI50 (HOP-92 NSCLC) was 2.56 µM. The TGI (HOP-92 NSCLC) was 6.99 µM, the GI50 (ACHN renal) was 2.36 µM and the TGI (ACHN renal) was 5.72 µM. For the same compound, the GI50 (MALME-3M melanoma) was 3.89 µM, the TGI (MALME-3M melanoma) was 15.3 µM and the GI50 (SNB-19 CNS) was 12.6 µM. It also gave a TGI (SNB-19 CNS) of 28.1 µM, a GI50 (NCI-H226 lung) of 26.4 µM and a TGI (NCI-H226 lung) of 60.4 µM. It also gave a GI50 (SW-620 colon) of 2.86 µM, a TGI (SW-620 colon) of 8.16 µM and a GI50 (786-0 renal) of 1.84 µM. For the same compound, the TGI (786-0 renal) was 3.4 µM, the GI50 (UACC-257 melanoma) was 15 µM and the TGI (UACC-257 melanoma) was 29.2 µM. It also gave a GI50 (K-562 leukemia) of 2.09 µM, a TGI (K-562 leukemia) of 10.5 µM and a GI50 (SNB-75 CNS) of 12.6 µM. The TGI (SNB-75 CNS) was 25.4 µM, the GI50 (PC-3 prostate) was 4.39 µM and the TGI (PC-3 prostate) was 16.4 µM. It also gave a GI50 (HOP-62 NSCLC) of 14.4 µM, a TGI (HOP-62 NSCLC) of 29.6 µM and a GI50 (SK-MEL-28 melanoma) of 3.12 µM. The TGI (SK-MEL-28 melanoma) was 12 µM.
